Structures can show the parent of a compound that is named as a salt.
How the values were obtained:
[1] = molecular target: factor Xa (Homo sapiens, UniProt P00742); assay: biochemical; conditions: read-out: Kass Xa (converted)
Summary of the method: (§1)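 Bovine trypsin and human factor Xa amidase activity measured chromogenically, following the human thrombin procedure. Substrates: N-Benzoyl-Ile-Glu-Gly-Arg-p-nitroanilide for factor Xa and N-Benzoyl-Phe-Val-Arg-p-nitroanilide for trypsin. Used for selectivity profiling.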

[2] = molecular target: t-PA (Homo sapiens, UniProt P00750); assay: biochemical; conditions: read-out: Kass t-PA (converted)
t-PA, sequence (P00750 36-562): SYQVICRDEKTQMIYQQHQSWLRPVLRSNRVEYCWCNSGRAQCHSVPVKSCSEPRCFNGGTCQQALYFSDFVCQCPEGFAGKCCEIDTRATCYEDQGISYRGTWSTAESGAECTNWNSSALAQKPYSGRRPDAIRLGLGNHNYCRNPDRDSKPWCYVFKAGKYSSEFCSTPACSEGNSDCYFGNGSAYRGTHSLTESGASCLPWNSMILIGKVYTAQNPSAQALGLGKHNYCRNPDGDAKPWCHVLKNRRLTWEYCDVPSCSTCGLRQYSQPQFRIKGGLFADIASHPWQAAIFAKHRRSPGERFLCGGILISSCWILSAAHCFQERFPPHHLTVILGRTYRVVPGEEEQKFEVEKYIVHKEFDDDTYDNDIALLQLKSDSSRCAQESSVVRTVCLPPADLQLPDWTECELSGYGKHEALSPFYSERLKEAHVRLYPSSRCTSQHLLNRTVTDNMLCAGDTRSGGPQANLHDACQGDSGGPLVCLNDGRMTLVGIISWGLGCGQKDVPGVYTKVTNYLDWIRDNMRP
Summary of the method: (§2)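 Amidase activity of human plasmin and t-PA (nt-PA single-chain; mt-PA6) was measured by a chromogenic method adapted from a thrombin assay. Substrates were H-D-Val-Leu-Lys-p-nitroanilide for plasmin and H-D-Ile-Pro-Arg-p-nitroanilide for t-PA.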

[3] = molecular target: T1, Plasmin (Homo sapiens, UniProt P00747); assay: biochemical; conditions: read-out: Kass Plasmin (converted)
T1 construct: Human plasmin is purchased; purchased Boehringer Mannheim, Indianapolis, Indiana
T1 sequence (P00747 581-810 limits assumed): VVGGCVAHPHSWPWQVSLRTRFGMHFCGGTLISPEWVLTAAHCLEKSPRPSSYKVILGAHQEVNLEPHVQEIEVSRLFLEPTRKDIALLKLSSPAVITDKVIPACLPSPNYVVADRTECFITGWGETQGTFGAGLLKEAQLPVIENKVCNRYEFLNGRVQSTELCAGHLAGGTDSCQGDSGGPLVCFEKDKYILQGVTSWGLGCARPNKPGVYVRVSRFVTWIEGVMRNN
T1 sequence (P00747 97-580 partner limits assumed): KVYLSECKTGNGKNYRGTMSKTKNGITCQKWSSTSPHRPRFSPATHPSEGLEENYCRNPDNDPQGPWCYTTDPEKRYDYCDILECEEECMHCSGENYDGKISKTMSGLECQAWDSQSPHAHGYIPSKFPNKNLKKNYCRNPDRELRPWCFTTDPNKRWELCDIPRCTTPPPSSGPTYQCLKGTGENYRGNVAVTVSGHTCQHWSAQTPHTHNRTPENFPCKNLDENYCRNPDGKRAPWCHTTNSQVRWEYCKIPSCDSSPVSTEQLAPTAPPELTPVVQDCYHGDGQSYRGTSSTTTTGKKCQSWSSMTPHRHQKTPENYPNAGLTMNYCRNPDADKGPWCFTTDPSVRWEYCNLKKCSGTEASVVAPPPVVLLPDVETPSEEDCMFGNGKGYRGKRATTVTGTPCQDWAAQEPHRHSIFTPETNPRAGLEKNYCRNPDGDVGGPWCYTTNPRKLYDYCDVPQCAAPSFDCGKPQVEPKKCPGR
Summary of the method: as §2

[4] = test system: human or animal plasma; assay: Anticoagulation determination in plasma: prothrombin time (PT); format: biochemical; conditions: concentration doubling prothrombin time
Summary of the method: (§3)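 Compounds spiked over a concentration range into citrated human, dog or rat plasma. PT used Thromboplastin-C; APTT used Actin reagent 120 s then 0.02 M CaCl2; TT used bovine thrombin 10 NIH units/mL. Concentration doubling clotting time estimated by linear extrapolation.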

[5] = molecular target: Human Thrombin (Homo sapiens, UniProt P00734); assay: biochemical; conditions: read-out: Kass Human Thrombin (converted)
[6] = test system: human or animal plasma; assay: Anticoagulation determination in plasma: activated partial thromboplastin time (APTT); format: biochemical; conditions: concentration doubling activated partial thromboplastin time
Summary of the method: as §3

[7] = test system: human or animal plasma; assay: Anticoagulation determination in plasma: thrombin time (TT); format: biochemical; conditions: concentration doubling thrombin time
Summary of the method: as §3

[8] = molecular target: T2, Trypsin (Bos taurus, UniProt P00760); assay: biochemical; design: species or system Bovine; conditions: read-out: Kass Trypsin (converted)
T2 sequence (P00760 24-246): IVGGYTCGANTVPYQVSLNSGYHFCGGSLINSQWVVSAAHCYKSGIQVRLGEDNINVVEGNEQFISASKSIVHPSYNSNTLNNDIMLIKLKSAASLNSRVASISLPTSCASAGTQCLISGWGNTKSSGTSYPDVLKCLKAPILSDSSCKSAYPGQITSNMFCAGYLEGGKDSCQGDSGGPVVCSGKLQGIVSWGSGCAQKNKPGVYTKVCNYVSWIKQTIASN
Summary of the method: as §1

[9] = in vivo; design: species or system rats; conditions: screening not completed, activity after p.o. dose given in the legend
Excerpt: Each sample population represented alternating sequential time points.
For % oral/i.v. activity (Rat) in this document: key: NC^1 indicates screening not completed; low or very low activity obsrved at 20 mg/kg p.o; NC^2 indicates screening not completed; low or very low activity observed at 60 mg/kg p.o; NC^3 indicates screening not completed; low or very low activity observed at 50 mg/kg p.o.

factor Xa, sequence (P00742 235-488 limits assumed): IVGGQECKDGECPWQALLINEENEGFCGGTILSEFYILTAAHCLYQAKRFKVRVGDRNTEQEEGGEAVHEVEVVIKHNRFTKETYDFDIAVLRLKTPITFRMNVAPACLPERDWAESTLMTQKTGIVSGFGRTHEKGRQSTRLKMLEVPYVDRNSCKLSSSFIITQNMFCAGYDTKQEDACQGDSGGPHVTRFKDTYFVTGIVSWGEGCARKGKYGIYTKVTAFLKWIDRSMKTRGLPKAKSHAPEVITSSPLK
factor Xa, sequence (P00742 41-179 partner limits assumed): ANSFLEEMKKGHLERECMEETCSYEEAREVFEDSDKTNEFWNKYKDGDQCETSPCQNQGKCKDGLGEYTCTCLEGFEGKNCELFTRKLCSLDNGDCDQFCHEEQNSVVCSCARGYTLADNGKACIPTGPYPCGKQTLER

Compound	Kd [1]	Kd [2]	Kd [3]	Human Plasma Anticoagulation 2x Clotting time (ng/mL) PT [4]	Kd [5]	Human Plasma Anticoagulation 2x Clotting time (ng/mL) APTT [6]	Human Plasma Anticoagulation 2x Clotting time (ng/mL) TT [7]	Kd [8]	% oral/i.v. activity (Rat) [9]
N=C(N)c1ccc(CNC(=O)[C@@H]2C[C@@H]3CCCC[C@@H]3N2C(=O)[C@@H](CC2CCCCC2)NCC(=O)O)cc1 [Example 49, HOOCCH2-D-Cha-cis-Ohi-p-NHCH2C6H4C(NH)NH2·HCl]	0.294 µM	25 µM	1.19 µM	130 ng/mL	0.0025 µM	130 ng/mL	5 ng/mL	0.00106 µM	NC^2
O=C(O)CN[C@H](CC1CCCCC1)C(=O)N1CCC[C@H]1C(=O)NCC1=CCNCC1 [Example 58, HO2CCH2-D-Cha-Pro-4-NHCH2-3,4-dehydro-piperidine·HCl]	> 1000 µM	> 1000 µM	> 1000 µM	11,400 ng/mL	1.67 µM	14,300 ng/mL	710 ng/mL	2.5 µM	
O=C(O)CN[C@H](CC1CCCCC1)C(=O)N1CCC[C@H]1C(=O)NCCC1=CCNCC1 [Example 59, HO2CCH2-D-Cha-Pro-4-NHCH2CH2-3,4-dehydro-piperidine·HCl]	> 1000 µM	> 1000 µM	> 1000 µM	7,000 ng/mL	0.909 µM	5,500 ng/mL	420 ng/mL	4.76 µM	
O=C(O)CN[C@H](CC1CCCCC1)C(=O)N1CCC[C@H]1C(=O)NCCCC1=CCNCC1 [Example 60, HO2CCH2-D-Cha-Pro-4-NHCH2CH2CH2-3,4-dehydro-piperidine·HCl]	> 1000 µM	> 1000 µM	> 1000 µM	77,700 ng/mL	4.17 µM	22,200 ng/mL	3,200 ng/mL	33.3 µM	
N=C(N)NCCCCNC(=O)[C@@H]1CCCN1C(=O)[C@@H]1NCC[C@H]2CCCC[C@H]21 [Example 61, N-[4-[(aminoiminomethyl)amino]butyl]-1-[[(4aR,8aR)-decahydro-1(R)-isoquinolinyl]carbonyl]-1-prolinamide trihydrochloride]	33.3 µM	125 µM	250 µM	756 ng/mL	0.0159 µM	679 ng/mL	45 ng/mL	1 µM	
Nc1ccc(CNC(=O)[C@@H]2CCCN2C(=O)[C@@H](CC2CCCCC2)NCC(=O)O)c(F)c1 [Example 64, HO2CCH2-D-Cha-Pro-4-NHCH2-3-F-C6H3NH2·HCl]	100 µM			650 ng/mL	0.0667 µM	900 ng/mL	23 ng/mL		NC^3
N=C(N)c1ccc(CNC(=O)[C@@H]2CCCN2C(=O)[C@@H](CC2CCCCC2)NCC(=O)O)c(F)c1 [Example 71, HO2CCH2-D-Cha-Pro-4-NHCH2-3-F-benzamidine·HCl]				150 ng/mL	0.000714 µM	89 ng/mL	1 ng/mL	0.00417 µM	NC^1
N=C(N)c1cc(F)c(CNC(=O)[C@@H]2CCCN2C(=O)[C@@H](CC2CCCCC2)NCC(=O)O)c(F)c1 [Example 72, HO2CCH2-D-Cha-Pro-4-NHCH2-3,5-F2-benzamidine·HCl]				160 ng/mL	0.000435 µM	160 ng/mL	1 ng/mL	0.00357 µM	NC^1

— patent EP0672658B1, “Antithrombotic agents” (priority 1994, dated 1995)
